Laboratory results: ChEMBL document CHEMBL1151508, “Preparation and activities of 4-epi and 4-deoxy-4-amino analogs derived from 9-deoxo-8a-aza-8a-homoerythromycin A” (1994)
Converted amounts (≈) assume the structure as drawn.

Columns and labels:
Assay type in all cases: functional
[1] = system: Escherichia coli; assay: In vitro minimum inhibitory concentration against Escherichia coli MB2884.
[2] = system: Haemophilus influenzae; assay: In vitro minimum inhibitory concentration against Haemophilus influenzae MB5363.
[3] = system: Klebsiella pneumoniae; assay: In vitro minimum inhibitory concentration against Klebsiella pneumoniae MB4005.
[4] = system: Streptococcus pneumoniae; assay: In vitro minimum inhibitory concentration against Streptococcus pneumoniae CL2883.
[5] = system: Staphylococcus aureus; assay: In vitro minimum inhibitory concentration against Staphylococcus aureus MB2865.
[6] = system: Enterococcus faecalis; assay: In vitro minimum inhibitory concentration against Enterococcus faecalis MB5407.

SMILES	MIC [1]	MIC [2]	MIC [3]	MIC [4]	MIC [5]	MIC [6]
CCCN1C[C@H](C)[C@@H](O)[C@](C)(O)[C@@H](CC)OC(=O)[C@H](C)[C@@H](O[C@H]2C[C@@](C)(OC)C(N)[C@H](C)O2)[C@H](C)[C@@H](O[C@@H]2O[C@H](C)C[C@H](N(C)C)[C@H]2O)[C@](C)(O)C[C@H]1C (some centres undefined)	0.5 µg/mL (≈ 0.644 µM)	0.5 µg/mL (≈ 0.644 µM)	0.5 µg/mL (≈ 0.644 µM)	0.06 µg/mL (≈ 0.0773 µM)	1 µg/mL (≈ 1.29 µM)	2 µg/mL (≈ 2.58 µM)
CC[C@H]1OC(=O)[C@H](C)[C@@H](O[C@H]2C[C@@](C)(OC)[C@@H](N(C)C)[C@H](C)O2)[C@H](C)[C@@H](O[C@@H]2O[C@H](C)C[C@H](N(C)C)[C@H]2OC(=O)OCC2c3ccccc3-c3ccccc32)[C@](C)(O)C[C@@H](C)N(C)C[C@H](C)[C@@H](O)[C@]1(C)O	1 µg/mL (≈ 1 µM)	2 µg/mL (≈ 2 µM)	2 µg/mL (≈ 2 µM)	0.5 µg/mL (≈ 0.501 µM)	8 µg/mL (≈ 8.01 µM)	8 µg/mL (≈ 8.01 µM)
CC[C@H]1OC(=O)[C@H](C)[C@@H](O[C@H]2C[C@@](C)(OC)[C@@H](NC(C)=O)[C@H](C)O2)[C@H](C)[C@@H](O[C@@H]2O[C@H](C)C[C@H](N(C)C)[C@H]2OC(=O)OCC2c3ccccc3-c3ccccc32)[C@](C)(O)C[C@@H](C)N(C)C[C@H](C)[C@@H](O)[C@]1(C)O	2 µg/mL (≈ 1.98 µM)	8 µg/mL (≈ 7.9 µM)	2 µg/mL (≈ 1.98 µM)	0.25 µg/mL (≈ 0.247 µM)	2 µg/mL (≈ 1.98 µM)	8 µg/mL (≈ 7.9 µM)
CC[C@H]1OC(=O)[C@H](C)[C@@H](O[C@H]2C[C@@](C)(OC)[C@H](N(C)C)[C@H](C)O2)[C@H](C)[C@@H](O[C@@H]2O[C@H](C)C[C@H](N(C)C)[C@H]2OC(=O)OCC2c3ccccc3-c3ccccc32)[C@](C)(O)C[C@@H](C)N(C)C[C@H](C)[C@@H](O)[C@]1(C)O	0.5 µg/mL (≈ 0.501 µM)	2 µg/mL (≈ 2 µM)	2 µg/mL (≈ 2 µM)	0.5 µg/mL (≈ 0.501 µM)	32 µg/mL (≈ 32.1 µM)	16 µg/mL (≈ 16 µM)
CC[C@H]1OC(=O)[C@H](C)[C@@H](O[C@H]2C[C@@](C)(OC)[C@@H](N)[C@H](C)O2)[C@H](C)[C@@H](O[C@@H]2O[C@H](C)C[C@H](N(C)C)[C@H]2OC(=O)OCC2c3ccccc3-c3ccccc32)[C@](C)(O)C[C@@H](C)N(C)C[C@H](C)[C@@H](O)[C@]1(C)O	0.13 µg/mL (≈ 0.134 µM)	0.25 µg/mL (≈ 0.258 µM)	0.13 µg/mL (≈ 0.134 µM)	0.06 µg/mL (≈ 0.0618 µM)	1 µg/mL (≈ 1.03 µM)	2 µg/mL (≈ 2.06 µM)
CC[C@H]1OC(=O)[C@H](C)[C@@H](O[C@H]2C[C@@](C)(OC)C(N)[C@H](C)O2)[C@H](C)[C@@H](O[C@@H]2O[C@H](C)C[C@H](N(C)C)[C@H]2O)[C@](C)(O)C[C@@H](C)N(C)C[C@H](C)[C@@H](O)[C@]1(C)O (some centres undefined)	0.25 µg/mL (≈ 0.334 µM)	1 µg/mL (≈ 1.34 µM)	0.13 µg/mL (≈ 0.174 µM)	0.03 µg/mL (≈ 0.0401 µM)	2 µg/mL (≈ 2.67 µM)	4 µg/mL (≈ 5.35 µM)
C=CCN1C[C@H](C)[C@@H](O)[C@](C)(O)[C@@H](CC)OC(=O)[C@H](C)[C@@H](O[C@H]2C[C@@](C)(OC)C(N)[C@H](C)O2)[C@H](C)[C@@H](O[C@@H]2O[C@H](C)C[C@H](N(C)C)[C@H]2O)[C@](C)(O)C[C@H]1C (some centres undefined)	0.5 µg/mL (≈ 0.646 µM)	0.5 µg/mL (≈ 0.646 µM)	0.25 µg/mL (≈ 0.323 µM)	0.06 µg/mL (≈ 0.0775 µM)	2 µg/mL (≈ 2.58 µM)	4 µg/mL (≈ 5.17 µM)
CC[C@H]1OC(=O)[C@H](C)[C@@H](O[C@H]2C[C@@](C)(OC)[C@H](O)[C@H](C)O2)[C@H](C)[C@@H](O[C@@H]2O[C@H](C)C[C@H](N(C)C)[C@H]2O)[C@](C)(O)C[C@@H](C)N(C)C[C@H](C)[C@@H](O)[C@]1(C)O	1 µg/mL (≈ 1.34 µM)	1 µg/mL (≈ 1.34 µM)	4 µg/mL (≈ 5.34 µM)	0.06 µg/mL (≈ 0.0801 µM)	0.5 µg/mL (≈ 0.668 µM)	1 µg/mL (≈ 1.34 µM)
CC[C@H]1OC(=O)[C@H](C)[C@@H](O[C@H]2C[C@@](C)(OC)[C@H](NC(C)=O)[C@H](C)O2)[C@H](C)[C@@H](O[C@@H]2O[C@H](C)C[C@H](N(C)C)[C@H]2OC(=O)OCC2c3ccccc3-c3ccccc32)[C@](C)(O)C[C@@H](C)N(C)C[C@H](C)[C@@H](O)[C@]1(C)O	1 µg/mL (≈ 0.988 µM)	4 µg/mL (≈ 3.95 µM)	4 µg/mL (≈ 3.95 µM)	0.5 µg/mL (≈ 0.494 µM)	16 µg/mL (≈ 15.8 µM)	8 µg/mL (≈ 7.9 µM)
CC[C@H]1OC(=O)[C@H](C)[C@@H](O[C@H]2C[C@@](C)(OC)[C@@H](n3cccc3)[C@H](C)O2)[C@H](C)[C@@H](O[C@@H]2O[C@H](C)C[C@H](N(C)C)[C@H]2OC(=O)OCC2c3ccccc3-c3ccccc32)[C@](C)(O)C[C@@H](C)N(C)C[C@H](C)[C@@H](O)[C@]1(C)O	4 µg/mL (≈ 3.92 µM)	4 µg/mL (≈ 3.92 µM)	4 µg/mL (≈ 3.92 µM)	0.13 µg/mL (≈ 0.127 µM)	4 µg/mL (≈ 3.92 µM)	2 µg/mL (≈ 1.96 µM)
CC[C@H]1OC(=O)[C@H](C)[C@@H](O[C@H]2C[C@@](C)(OC)[C@H](N)[C@H](C)O2)[C@H](C)[C@@H](O[C@@H]2O[C@H](C)C[C@H](N(C)C)[C@H]2OC(=O)OCC2c3ccccc3-c3ccccc32)[C@](C)(O)C[C@@H](C)N(C)C[C@H](C)[C@@H](O)[C@]1(C)O	0.25 µg/mL (≈ 0.258 µM)	0.5 µg/mL (≈ 0.515 µM)	0.25 µg/mL (≈ 0.258 µM)	0.06 µg/mL (≈ 0.0618 µM)	1 µg/mL (≈ 1.03 µM)	2 µg/mL (≈ 2.06 µM)
C=CCN1C[C@H](C)[C@@H](O)[C@](C)(O)[C@@H](CC)OC(=O)[C@H](C)[C@@H](O[C@H]2C[C@@](C)(OC)[C@@H](N)[C@H](C)O2)[C@H](C)[C@@H](O[C@@H]2O[C@H](C)C[C@H](N(C)C)[C@H]2OC(=O)OCC2c3ccccc3-c3ccccc32)[C@](C)(O)C[C@H]1C	0.25 µg/mL (≈ 0.251 µM)	1 µg/mL (≈ 1 µM)	0.13 µg/mL (≈ 0.13 µM)	0.03 µg/mL (≈ 0.0301 µM)	1 µg/mL (≈ 1 µM)	4 µg/mL (≈ 4.01 µM)
CC[C@H]1OC(=O)[C@H](C)[C@@H](O[C@H]2C[C@@](C)(OC)[C@@H](N)[C@H](C)O2)[C@H](C)[C@@H](O[C@@H]2O[C@H](C)C[C@H](N(C)C)[C@H]2OC(=O)OCC2c3ccccc3-c3ccccc32)[C@](C)(O)C[C@@H](C)N(CCF)C[C@H](C)[C@@H](O)[C@]1(C)O	0.25 µg/mL (≈ 0.249 µM)	1 µg/mL (≈ 0.998 µM)	0.13 µg/mL (≈ 0.13 µM)	0.03 µg/mL (≈ 0.0299 µM)	0.5 µg/mL (≈ 0.499 µM)	2 µg/mL (≈ 2 µM)
CC[C@H]1OC(=O)[C@H](C)[C@@H](O[C@H]2C[C@@](C)(OC)[C@H](N)[C@H](C)O2)[C@H](C)[C@@H](O[C@@H]2O[C@H](C)C[C@H](N(C)C)[C@H]2OC(=O)OCC2c3ccccc3-c3ccccc32)[C@](C)(O)C[C@@H](C)N(CCF)C[C@H](C)[C@@H](O)[C@]1(C)O	0.25 µg/mL (≈ 0.249 µM)	0.5 µg/mL (≈ 0.499 µM)	0.13 µg/mL (≈ 0.13 µM)	0.03 µg/mL (≈ 0.0299 µM)	0.25 µg/mL (≈ 0.249 µM)	1 µg/mL (≈ 0.998 µM)
C=CCN1C[C@H](C)[C@@H](O)[C@](C)(O)[C@@H](CC)OC(=O)[C@H](C)[C@@H](O[C@H]2C[C@@](C)(OC)[C@H](N)[C@H](C)O2)[C@H](C)[C@@H](O[C@@H]2O[C@H](C)C[C@H](N(C)C)[C@H]2OC(=O)OCC2c3ccccc3-c3ccccc32)[C@](C)(O)C[C@H]1C	0.5 µg/mL (≈ 0.502 µM)	0.5 µg/mL (≈ 0.502 µM)	0.25 µg/mL (≈ 0.251 µM)	0.03 µg/mL (≈ 0.0301 µM)	1 µg/mL (≈ 1 µM)	2 µg/mL (≈ 2.01 µM)
CC[C@H]1OC(=O)[C@H](C)[C@@H](O[C@H]2C[C@@](C)(OC)[C@H](n3cccc3)[C@H](C)O2)[C@H](C)[C@@H](O[C@@H]2O[C@H](C)C[C@H](N(C)C)[C@H]2OC(=O)OCC2c3ccccc3-c3ccccc32)[C@](C)(O)C[C@@H](C)N(C)C[C@H](C)[C@@H](O)[C@]1(C)O	4 µg/mL (≈ 3.92 µM)	16 µg/mL (≈ 15.7 µM)	8 µg/mL (≈ 7.84 µM)	0.25 µg/mL (≈ 0.245 µM)	8 µg/mL (≈ 7.84 µM)	4 µg/mL (≈ 3.92 µM)
CC[C@H]1OC(=O)[C@H](C)[C@@H](O[C@H]2C[C@@](C)(OC)[C@@H](O)[C@H](C)O2)[C@H](C)[C@@H](O[C@@H]2O[C@H](C)C[C@H](N(C)C)[C@H]2O)[C@](C)(O)C[C@@H](C)CN(C)[C@H](C)[C@@H](O)[C@]1(C)O [AZITHROMYCIN]	1 µg/mL (≈ 1.34 µM)	0.5 µg/mL (≈ 0.668 µM)	2 µg/mL (≈ 2.67 µM)	0.03 µg/mL (≈ 0.0401 µM)	1 µg/mL (≈ 1.34 µM)	4 µg/mL (≈ 5.34 µM)
CC[C@H]1OC(=O)[C@H](C)[C@@H](O[C@H]2C[C@@](C)(OC)[C@@H](O)[C@H](C)O2)[C@H](C)[C@@H](O[C@@H]2O[C@H](C)C[C@H](N(C)C)[C@H]2O)[C@](C)(O)C[C@@H](C)C(=O)[C@H](C)[C@@H](O)[C@]1(C)O [ERYTHROMYCIN]	32 µg/mL (≈ 43.6 µM)	2 µg/mL (≈ 2.73 µM)	32 µg/mL (≈ 43.6 µM)	0.02 µg/mL (≈ 0.0273 µM)	0.25 µg/mL (≈ 0.341 µM)	1 µg/mL (≈ 1.36 µM)
CC[C@H]1OC(=O)[C@H](C)[C@@H](O[C@H]2C[C@@](C)(OC)[C@@H](O)[C@H](C)O2)[C@H](C)[C@@H](O[C@@H]2O[C@H](C)C[C@H](N(C)C)[C@H]2O)[C@](C)(O)C[C@@H](C)N(C)C[C@H](C)[C@@H](O)[C@]1(C)O [L-701677]	1 µg/mL (≈ 1.34 µM)	1 µg/mL (≈ 1.34 µM)	1 µg/mL (≈ 1.34 µM)	0.03 µg/mL (≈ 0.0401 µM)	0.5 µg/mL (≈ 0.668 µM)	2 µg/mL (≈ 2.67 µM)
